Test results taken from patent publication US10092575B2, “Substituted thiophene- and furan-fused azolopyrimidine-5-(6H)-one compounds” (DART NEUROSCIENCE (CAYMAN) LTD., priority 2012, dated 2018).

Target: human PDE1b enzyme (Homo sapiens (Human), UniProt Q01064)
Test: PDE1b inhibitory assay (IMAP TR-FRET)
Conditions: not given

SMILES	EC50 [nM]
Cc1cc2c(s1)n(Cc1ccc(Cl)cc1)c(=O)n1ncnc21 [Example 15, 6-(4-Chlorobenzyl)-8-methylthieno[3,2-e][1,2,4]triazolo[1,5-c]pyrimidin-5(6H)-one]	100 to 1000
COc1ccc(Cn2c(=O)n3ncnc3c3c(CN4CCCC(CO)(CC(C)C)C4)csc32)cc1 (centres unmarked) [Example 195, 9-((3-(Hydroxymethyl)-3-isobutylpiperidin-1-yl)methyl)-6-(4-methoxybenzyl)thieno[3,2-e][1,2,4]triazolo[1,5-c]pyrimidin-5(6H)-one]	100 to 1000
O=c1n(Cc2ccc(Cl)cc2)c2sccc2c2ncnn12 [Example 5, 6-(4-Chlorobenzyl)thieno[3,2-e][1,2,4]triazolo[1,5-c]pyrimidin-5(6H)-one]	100 to 1000
COc1ccc(Cn2c(=O)n3ncnc3c3c4c(sc32)NCCC4)cc1 [Example 221, 6-(4-Methoxybenzyl)-8,9,10,11-tetrahydropyrido[3′,2′:4,5]thieno[3,2-e][1,2,4]triazolo[1,5-c]pyrimidin-5(6H)-one]	100 to 1000
COc1ccc(Cn2c(=O)n3ncnc3c3cc(CN4CCC5(C4)CC5(F)F)sc32)cc1 (centres unmarked) [Example 192, 8-((1,1-Difluoro-5-azaspiro[2.4]heptan-5-yl)methyl)-6-(4-methoxybenzyl)thieno[3,2-e][1,2,4]triazolo[1,5-c]pyrimidin-5(6H)-one]	100 to 1000
CC(C)CCc1cc2c(s1)n(Cc1ccc(Cl)cc1)c(=O)n1ncnc21 [Example 23, 6-(4-Chlorobenzyl)-8-isopentylthieno[3,2-e][1,2,4]triazolo[1,5-c]pyrimidin-5(6H)-one]	100 to 1000
COc1ccc(Cn2c(=O)n3ncnc3c3c4c(sc32)CN(C(C)C(F)F)CC4)cc1 (centres unmarked) [Example 151, 9-(1,1-Difluoropropan-2-yl)-6-(4-methoxybenzyl)-8,9,10,11-tetrahydropyrido[4′,3′:4,5]thieno[3,2-e][1,2,4]triazolo[1,5-c]pyrimidin-5(6H)-one]	100 to 1000
Cc1csc2c1c1ncnn1c(=O)n2Cc1ccccc1 [Example 6, 6-Benzyl-9-methylthieno[3,2-e][1,2,4]triazolo[1,5-c]pyrimidin-5(6H)-one]	100 to 1000
O=c1n(Cc2cccc(Cl)c2)c2sc3c(c2c2ncnn12)CCCC3 [Example 85, 6-(3-Chlorobenzyl)-8,9,10,11-tetrahydrobenzo[4,5]thieno[3,2-e][1,2,4]triazolo[1,5-c]pyrimidin-5(6H)-one]	100 to 1000
COc1ccc(Cn2c(=O)n3ncnc3c3c4c(sc32)N(Cc2ccc(Cl)cc2)CCC4)cc1OC [Example 153, 8-(4-Chlorobenzyl)-6-(3,4-dimethoxybenzyl)-8,9,10,11-tetrahydropyrido[3′,2′:4,5]thieno[3,2-e][1,2,4]triazolo[1,5-c]pyrimidin-5 (6H)-one]	1000 to 10000
Cc1cc2c(s1)n(Cc1ccccc1Cl)c(=O)n1ncnc21 [Example 13, 6-(2-Chlorobenzyl)-8-methylthieno[3,2-e][1,2,4]triazolo[1,5-c]pyrimidin-5(6H)-one]	1000 to 10000
CCN(Cc1cc2c(s1)n(Cc1ccc(OC)cc1)c(=O)n1ncnc21)CC1CCOCC1 [Example 198, 8-((Ethyl((tetrahydro-2H-pyran-4-yl)methyl)amino)methyl)-6-(4-methoxybenzyl)thieno[3,2-e][1,2,4]triazolo[1,5-c]pyrimidin-5(6H)-one]	1000 to 10000
COc1ccc(Cn2c(=O)n3ncnc3c3c4c(sc32)CNCC4)cc1 [Example 183, 6-(4-Methoxybenzyl)-8,9,10,11-tetrahydropyrido[4′,3′:4,5]thieno[3,2-e][1,2,4]triazolo[1,5-c]pyrimidin-5(6H)-one]	100 to 1000
COc1ccc(Cn2c(=O)n3ncnc3c3c4c(sc32)NCCC4)cc1OC [Example 100, 6-(3,4-Dimethoxybenzyl)-8,9,10,11-tetrahydropyrido[3′,2′:4,5]thieno[3,2-e][1,2,4]triazolo[1,5-c]pyrimidin-5(6H)-one]	1000 to 10000
Cc1csc2c1c1ncnn1c(=O)n2Cc1cccc(Cl)c1 [Example 11, 6-(3-Chlorobenzyl)-9-methylthieno[3,2-e][1,2,4]triazolo[1,5-c]pyrimidin-5(6H)-one]	100 to 1000
COc1ccc(Cn2c(=O)n3ncnc3c3cc(CN(C)C4CCOCC4)sc32)cc1 [Example 204, 6-(4-Methoxybenzyl)-8-((methyl(tetrahydro-2H-pyran-4-yl)amino)methyl)thieno[3,2-e][1,2,4]triazolo[1,5-c]pyrimidin-5(6H)-one]	1000 to 10000
O=c1n(Cc2ccc(Cl)cc2)c2sc(Cc3ccccc3)cc2c2ncnn12 [Example 22, 8-Benzyl-6-(4-chlorobenzyl)thieno[3,2-e][1,2,4]triazolo[1,5-c]pyrimidin-5(6H)-one]	100 to 1000
O=c1n(Cc2ccc(OC(F)(F)F)cc2)c2sc3c(c2c2ncnn12)CCOC3 [Example 96, 6-(4-(Trifluoromethoxy)benzyl)-6,8,10,11-tetrahydro-5H-pyrano[4′,3′:4,5]thieno[3,2-e][1,2,4]triazolo[1,5-c]pyrimidin-5-one]	1000 to 10000
COc1ccc(Cn2c(=O)n3ncnc3c3ccsc32)cc1 [Example 27, 6-(4-Methoxybenzyl)thieno[3,2-e][1,2,4]triazolo[1,5-c]pyrimidin-5(6H)-one]	100 to 1000

Same assay, conditions: negative log of half-maximal molar inhibitory concentration; 200 nM FAM-cAMP; reported as ranges

SMILES	PDE1b (pEC50)
COc1ccc(Cn2c(=O)n3ncnc3c3c4c(sc32)CN(C(=O)OC(C)(C)C)CC4)cc1 [Example 80, tert-Butyl 6-(4-methoxybenzyl)-5-oxo-5,6,10,11-tetrahydropyrido[4′,3′:4,5]thieno[3,2-e][1,2,4]triazolo[1,5-c]pyrimidine-9(8H)-carboxylate]	>7
COc1ccc(Cn2c(=O)n3ncnc3c3c(C)c(CN4CCCOCC4)sc32)cc1 [Example 61, 8-((1,4-Oxazepan-4-yl)methyl)-6-(4-methoxybenzyl)-9-methylthieno[3,2-e][1,2,4]triazolo[1,5-c]pyrimidin-5(6H)-one]	>7
COc1ccc(Cn2c(=O)n3ncnc3c3c4c(sc32)CN(Cc2nccn2C)CC4)c(F)c1 [Example 138, 6-(2-Fluoro-4-methoxybenzyl)-9-((1-methyl-1H-imidazol-2-yl)methyl)-8,9,10,11-tetrahydropyrido[4′,3′:4,5]thieno[3,2-e][1,2,4]triazolo[1,5-c]pyrimidin-5(6H)-one]	>7
COc1ccc(Cn2c(=O)n3ncnc3c3cc(CN4CCOC(C)(C)C4)sc32)cc1 [Example 36]	>7
COc1ccc(Cn2c(=O)n3ncnc3c3c(C)c(CN4CCC(O)CC4)sc32)cc1 [Example 47, 8-((4-Hydroxypiperidin-1-yl)methyl)-6-(4-methoxybenzyl)-9-methylthieno[3,2-e][1,2,4]triazolo[1,5-c]pyrimidin-5(6H)-one]	>7
COc1ccc(Cn2c(=O)n3ncnc3c3c(C)c(CN4CC5CCC(C4)O5)sc32)cc1 [Example 67, 8-(8-Oxa-3-azabicyclo[3.2.1]octan-3-ylmethyl)-6-(4-methoxybenzyl)-9-methylthieno[3,2-e][1,2,4]triazolo[1,5-c]pyrimidin-5(6H)-one]	>7
COc1ccc(Cn2c(=O)n3ncnc3c3c4c(sc32)CN(Cc2ccccn2)CC4)cc1 [Example 120, 6-(4-Methoxybenzyl)-9-(pyridin-2-ylmethyl)-8,9,10,11-tetrahydropyrido[4′,3′:4,5]thieno[3,2-e][1,2,4]triazolo[1,5-c]pyrimidin-5 (6H)-one]	>7
COc1ccc(Cn2c(=O)n3ncnc3c3c4c(sc32)N(CC2CCOCC2)CCC4)cc1 [Example 148, 6-(4-Methoxybenzyl)-8-((tetrahydro-2H-pyran-4-yl)methyl)-8,9,10,11-tetrahydropyrido[3′,2′:4,5]thieno[3,2-e][1,2,4]triazolo[1,5-c]pyrimidin-5(6H)-one]	>7
COc1ccc(Cn2c(=O)n3ncnc3c3c4c(sc32)CN(C(=O)C2CC2)CC4)c(F)c1 [Example 168, 9-(Cyclopropanecarbonyl)-6-(2-fluoro-4-methoxybenzyl)-8,9,10,11-tetrahydropyrido[4′,3′:4,5]thieno[3,2-e][1,2,4]triazolo[1,5-c]pyrimidin-5(6H)-one]	>7
COc1ccc(Cn2c(=O)n3ncnc3c3cc(CN4CCC(N5CCOCC5)CC4)sc32)cc1 [Example 191]	>7
COc1ccc(Cn2c(=O)n3ncnc3c3cc(CN4CC5(CCOCC5)C4)sc32)cc1 [Example 38, 8-(7-Oxa-2-azaspiro[3.5]nonan-2-ylmethyl)-6-(4-methoxybenzyl)thieno[3,2-e][1,2,4]triazolo[1,5-c]pyrimidin-5(6H)-one]	>7
COc1ccc(Cn2c(=O)n3ncnc3c3c4c(sc32)CN(Cc2ccccc2F)CC4)cc1 [Example 128, 9-(2-Fluorobenzyl)-6-(4-methoxybenzyl)-8,9,10,11-tetrahydropyrido[4′,3′:4,5]thieno[3,2-e][1,2,4]triazolo[1,5-c]pyrimidin-5(6H)-one]	>7
COc1ccc(Cn2c(=O)n3ncnc3c3c4c(sc32)CN(CC2CCOC2)CC4)c(F)c1 (centres unmarked) [Example 140, 6-(2-Fluoro-4-methoxybenzyl)-9-((tetrahydrofuran-3-yl)methyl)-8,9,10,11-tetrahydropyrido[4′,3′:4,5]thieno[3,2-e][1,2,4]triazolo[1,5-c]pyrimidin-5(6H)-one]	>7
COc1ccc(Cn2c(=O)n3ncnc3c3c4c(sc32)COCC4)cc1 [Example 90, 6-(4-Methoxybenzyl)-6,8,10,11-tetrahydro-5H-pyrano[4′,3′:4,5]thieno[3,2-e][1,2,4]triazolo[1,5-c]pyrimidin-5-one]	>7
COc1ccc(Cn2c(=O)n3ncnc3c3cc(CN4CCN5C(=O)OCC5C4)sc32)cc1 (centres unmarked) [Example 40, 7-((6-(4-Methoxybenzyl)-5-oxo-5,6-dihydrothieno[3,2-e][1,2,4]triazolo[1,5-c]pyrimidin-8-yl)methyl)tetrahydro-1H-oxazolo[3,4-a]pyrazin-3(5H)-one]	>7
COc1ccc(Cn2c(=O)n3ncnc3c3cc(-c4cc(C(F)(F)F)nn4C)sc32)cc1 [Example 41, 6-(4-Methoxybenzyl)-8-(1-methyl-3-(trifluoromethyl)-1H-pyrazol-5-yl)thieno[3,2-e][1,2,4]triazolo[1,5-c]pyrimidin-5(6H)-one]	>7
